Measurements taken from publication PMC8922279, “Identification of β-Lactams Active against Mycobacterium tuberculosis by a Consortium of Pharmaceutical Companies and Academic Institutions” (ACS Infectious Diseases, 2022).
Like-named read-outs stand apart in the source and are kept apart here.

What was measured:
[1] = In vitro plasma stability, beagle dog plasma; conditions: beagle, dog, plasma
[2] = system: Mtb ΔpanCDΔlysA; type: cell-based, Mycobacterium tuberculosis; conditions: MIC90 in presence vs absence of 4 μg/mL clavulanate, replicating Mtb
[3] = Stability in simulated gastric fluid (SGF); conditions: simulated gastric fluid (SGF), pH 1.2
[4] = in vivo; conditions: female, 129sv DHP-1 knockout, mouse, sc
[5] = Stability in fasted simulated intestinal fluid (FaSSIF); conditions: fasted simulated intestinal fluid (FaSSIF), pH 6.5, FaSSIF Stability, % remaining, pH 6.5, room temperature
[6] = system: wild-type Mtb H37Rv; type: in vivo, 129sv DHP-1 knockout mice; conditions: for Log10 CFU per mouse (lungs), Mean: days 9-15, lungs day 16, untreated day 16 mean 9.1
[7] = In vitro plasma stability, cynomolgus monkey plasma; conditions: monkey, plasma
[8] = In vitro plasma stability, human plasma; conditions: human, plasma, Plasma stability % Remaining, 37 °C, time point 120 min
[9] = system: Caco-2 cells; experiment: Caco-2 permeability / efflux transporter substrate; conditions: Caco-2
[10] = Caco-2 permeability / efflux transporter substrate; conditions: human
[11] = In vitro plasma stability, SD rat plasma; conditions: SD, rat, plasma, Plasma stability % Remaining, 37 °C, time point 120 min
[12] = female, 129sv DHP-1 knockout, mouse, in vivo
[13] = In vitro plasma stability, CD-1 mouse plasma; conditions: male, CD-1, mouse, plasma, Plasma stability % Remaining, Mouse, 37 °C, time point 120 min

In the case of `C[C@@H](O)[C@H]1C(=O)N2C(C(=O)O)=C(S[C@@H]3CN[C@H](C(=O)N(C)C)C3)[C@H](C)[C@H]12` [Meropenem, reference compound], the remaining at 2 h, 2 μM [1] is reported as 75.2%, the “clavulanate shift of MIC90” value [2] is reported as ~8 fold and the remaining at 1 h, 10 μM [3] is reported as 111%. The remaining at 24 h, 10 μM [3] was 100%, the AUC(0-t) ([4]; 50 mg/kg) was 387 ng·h/mL and the Cmax ([4]; 50 mg/kg) was 724 ng/mL. The Tmax ([4]; 50 mg/kg) was 30 min, the AUC(0-t) ([4]; 300 mg/kg) was 2000 ng·h/mL and the Cmax ([4]; 300 mg/kg) was 3340 ng/mL. For the same molecule, the Tmax ([4]; 300 mg/kg) was 30 min, the remaining at 6 h, 10 μM ([5]; 6h) was 94.1% and the remaining at 24 h, 10 μM ([5]; 24h) was 76.8%. For the same molecule, the “Log10 CFU per mouse (lungs), Mean” value ([6]; 50 mg/kg sc bid + clavulanate 100 mg/kg po bid) was 7.6 Log10 CFU, the “Log10 CFU per mouse (lungs), Mean” value ([6]; 300 mg/kg sc bid + clavulanate 100 mg/kg po bid) was 7.1 Log10 CFU and the “effect on lung CFU (in words)” value ([6]; mouse, in vivo) was “bacteriostatic impact”. The remaining at 2 h, 2 μM [7] was 99.9%, the remaining at 2 h, 2 μM [8] was 70.6% and the “Caco-2 Rank Papp” value [9] was “Low”. For the same molecule, the Papp A→B at 120 min, 3 μM ([10]; Caco-2, pH 7.4) was < 0.26 ×10⁻⁶ cm/s, the Papp B→A at 120 min, 3 μM ([10]; Caco-2, pH 7.4) was < 0.24 ×10⁻⁶ cm/s and the recovery at 120 min, 3 μM ([10]; Caco-2, pH 7.4, Caco-2 Mean Recovery % A to B) was < 91%. The recovery at 120 min, 3 μM ([10]; Caco-2, pH 7.4, Caco-2 Mean Recovery % B to A) was < 94.2%, the remaining at 2 h, 2 μM [11] was 57.7% and the Tlast [12] was 1.0 h. For the same molecule, the remaining at 2 h, 2 μM [13] was 74.7%.
